These results are taken from publication PMC6257762, “Isoquinolines from the Roots of Thalictrum flavum L. and Their Evaluation as Antiparasitic Compounds” (Molecules, 2010).

Data set [1] concerns MCR-5 cells. Description: Cytotoxicity towards MCR-5 (MRC5) cells. Type of data set: cell-based. The method, then: (§1) 3.3. Evaluations of cytotoxicity towards MCR-5 and KB cells
(§2) Cytotoxicities were evaluated at the ICSN-CNRS (Gif sur Yvette, France) on MRC5 and KB cells, in DMSO, at 10 and 1 µg/mL according to the procedure described by Moret et al..

For data set [2], the system named is Plasmodium falciparum FcB1 Colombia. Description: In vitro P. falciparum culture antimalarial activity assay. Type of data set: cell-based. The method, then: 3.4. In vitro P. falciparum culture and activity assays
Antimalarial activity was evaluated on FcB1 Colombia strain of Plasmodium falciparum according to a previously described procedure.

Data set [3] deals with Leishmania major. Description: In vitro leishmanicidal activity, promastigote susceptibility (Uptiblue micromethod). Type of data set: cell-based. Particulars: promastigotes, MHOM/Il/81/BNI, 96 h at 26 °C. The method, then: 3.5. In vitro leishmanicidal activity
Leishmania major (MHOM/Il/81/BNI) was cultivated at 26 °C in a Schneider’s insect medium (Sigma, St Quentin Fallavier, France) supplemented with 15% foetal bovine serum (FBS) (Sigma), penicillin (100 IU/mL) and streptomycin (50 µg/mL). Exponentially growing cells were maintained at 26 °C. Promastigote susceptibility testing was performed with the Uptiblue® micromethod previously described. Briefly, 100 µL of a […] promastigotes/mL suspension were placed into wells of a 96-well microplate (Nunc®). The cultures were exposed for 96 h at 26 °C to the antileishmanial drugs at the concentrations used above, except for meglumine antimoniate for which dilutions were 0.2, 2 and 20 mg·mL^-1. Four h before measurement, 10 µL of Uptiblue® were added. The fluorescence was measured at 590 nm with an excitation at 550 nm.

Data set [4] deals with KB cells. Put plainly: Cytotoxicity towards KB cells. The data set is classed as cell-based. Here is the method: as §1, §2
On the set-up of data set [5]: method as in PMID 17109902. Particulars: quaternary protoberberines, as expected; cited from earlier work.
[6] abbreviates: Plasmodium falciparum, FcB1 Colombia strain, read-out: Antimalarial IC50 Plasmodium falciparum FcB1 Colombia.
[7] abbreviates: Plasmodium falciparum, FCB1, read-out: Antimalarial IC50 Plasmodium falciparum FcB1 Colombia.

As usually defined, the IC50 is the concentration that inhibits the measured activity by half.

Values joined by “and” are separate entries in the source; they are usually repeats but may differ in a detail not shown here. Equal values may be shown once. Read-outs that look alike come from different tables or passages of the source.

For the compound `COc1cc2c(cc1OC)C(Cc1ccc(O)cc1)N(C)CC2` (single isomer, unassigned; (-)) [(-)-Armepavine 9, (-)-armepavine], in data set [1] (human, 10 µg/mL), the “Cytotoxicity MCR-5 cells 10 µg/mL” value was found to be 0. For the same compound, the IC50 in data set [2] (setting [6]) was 3.6 µg/mL and 11.4 µM.
On to `COc1cc2c3c(c1OC)Oc1c(OC)c(OC)cc4c1C(Cc1ccc(O)c(c1)Oc1ccc(cc1)CC2N(C)CC3)NCC4` (single isomer, unassigned; (-)) [(-)-Northalfoetidine 5, (-)-northalfoetidine], for which, in data set [1] (human, 10 µg/mL), the “Cytotoxicity MCR-5 cells 10 µg/mL” value is 6. The IC50 was 2.8 µg/mL and 4.5 µM in data set [2] (setting [6]); 39 µg/mL and 63 µM in data set [3] (Leishmania major).
Turning to `COc1ccc2cc1Oc1ccc(cc1)CC1c3cc(OC)c(OC)c(c3CCN1C)Oc1c(OC)c(OC)cc3c1C(C2)NCC3` (single isomer, unassigned; (-)) [(-)-Northalidasine 2, (-)-northalidasine], the “Cytotoxicity MCR-5 cells 10 µg/mL” value in data set [1] (human, 10 µg/mL) is given as 0. In addition, the half-maximal inhibitory concentration (IC50) in data set [2] (setting [6]) was 3.4 µg/mL and 5.2 µM; in data set [3] (Leishmania major), 27 µg/mL and 41 µM.
As to `COc1ccc2cc1Oc1ccc(cc1)CC1c3cc(OC)c(OC)c(c3CCN1C)Oc1c(O)c(OC)cc3c1C(C2)NCC3` (single isomer, unassigned; (-)) [(-)-Northalrugosidine 3, (-)-northalrugosidine], the “Cytotoxicity MCR-5 cells 1 µg/mL” value in data set [1] (human, 1 µg/mL) was 0. Moreover, the “Cytotoxicity MCR-5 cells 10 µg/mL” value in data set [1] (human, 10 µg/mL) was 77. Besides, the IC50 in data set [2] (setting [6]) is 2.7 µg/mL and 4.3 µM; in data set [3] (Leishmania major), 30 µg/mL and 48 µM.
Take `COc1cc2c3c(c1OC)Oc1c(OC)c(OC)cc4c1C(Cc1ccc(O)c(c1)Oc1ccc(cc1)CC2N(C)CC3)N(C)CC4` (single isomer, unassigned; (-)) [(-)-Thalfoetidine 4, (-)-thalfoetidine]: the “Cytotoxicity MCR-5 cells 1 µg/mL” value in data set [1] (human, 1 µg/mL) came to 0. In addition, the “Cytotoxicity MCR-5 cells 10 µg/mL” value in data set [1] (human, 10 µg/mL) is 62. The IC50 is 2.1 µg/mL and 3.3 µM in data set [2] (setting [6]); 17 µg/mL and 27 µM in data set [3] (Leishmania major).
On to `COc1cc2c3c(c1O)Oc1c4c(cc(OC)c1OC)C(Cc1ccc(cc1)Oc1cc(ccc1O)CC3N(C)CC2)N(C)CC4` (single isomer, unassigned; (-)) [(-)-Thaligosidine 6, (-)-thaligosidine], for which, in data set [1] (human, 1 µg/mL), the “Cytotoxicity MCR-5 cells 1 µg/mL” value is 0. Further, the “Cytotoxicity MCR-5 cells 10 µg/mL” value in data set [1] (human, 10 µg/mL) was 61. Moreover, the IC50 was 1.2 µg/mL and 2 µM in data set [2] (setting [6]); 38 µg/mL and 61 µM in data set [3] (Leishmania major).
Regarding `COc1cc2c(cc1OC)-c1c3c(c(OC)c4c1[C@H](C2)NCC4)OCO3` [(+)-O-Methylcassythine 7, (+)-O-methylcassythine], the “Cytotoxicity MCR-5 cells 1 µg/mL” value in data set [1] (human, 1 µg/mL) came out at 4. In data set [1] (human, 10 µg/mL), the “Cytotoxicity MCR-5 cells 10 µg/mL” value is given as 61. The “Cytotoxicity KB cells 10 µg/mL” value in data set [4] is 49. Also, the IC50 was found to be 3.1 mg/L in data set [2] (setting [7]) and 8.6 µM in data set [2] (setting [6]).
On to `COc1cc2c(cc1OC)-c1c(O)c(OC)c(OC)c3c1[C@H](C2)N(C)CC3` [(+)-Preocoteine 1, (+)-preocoteine], for which the “Cytotoxicity MCR-5 cells 10 µg/mL” value in data set [1] (human, 10 µg/mL) was 20. Moreover, the “Cytotoxicity KB cells 10 µg/mL” value in data set [4] is on record as 23. Besides, the IC50 in data set [2] (setting [7]) was 0.5 mg/L; in data set [2] (setting [6]), 1.3 µM; in data set [3] (Leishmania major) it was > 100 µg/mL and > 100 µM.
Turning to `COc1ccc2cc3[n+](cc2c1OC)CCc1cc2c(cc1-3)OCO2` [Berberine 11, berberine], the “Cytotoxicity (in words)” value in data set [5] is “cytotoxic”. Besides, the IC50 in data set [2] (setting [6]) is 0.4 µg/mL and 900 nM; in data set [3] (Leishmania major), 13 µg/mL and 35 µM.
`CCN(CC)CCCC(C)Nc1ccnc2cc(Cl)ccc12` (stereo not shown) [Chloroquine, reference compound]: in data set [2] (setting [7]), the IC50 is 0.06 µg/mL and 100 nM.
As for `N=C(N)c1ccc(OCCCCCOc2ccc(C(=N)N)cc2)cc1` [Pentamidine, reference compound], the IC50 in data set [3] (Leishmania major) is 28 µg/mL and 82 µM.
On to `COc1cc2cc3[n+](cc2cc1OC)CCc1cc2c(cc1-3)OCO2` [Pseudoberberine 12, pseudoberberine], for which the “Cytotoxicity (in words)” value in data set [5] is listed as “cytotoxic”. The IC50 was 0.5 µg/mL and 1.3 µM in data set [2] (setting [6]); 3.5 µg/mL and 9 µM in data set [3] (Leishmania major).
Turning to `COc1cc(CCN(C)C)c2ccc3cc4c(c5c(=O)oc1c2c35)OCO4` [Thaliglucinone 10, thaliglucinone], the “Cytotoxicity MCR-5 cells 1 µg/mL” value in data set [1] (MCR-5 (MRC5) cells, compound at 1 µg/mL in DMSO) worked out at 21. In addition, the “Cytotoxicity MCR-5 cells 10 µg/mL” value in data set [1] (MCR-5 (MRC5) cells, compound at 10 µg/mL in DMSO) amounted to 79. Moreover, the concentration for half-maximal inhibition (IC50) in data set [2] (setting [7]) is 2.4 mg/L; in data set [2] (setting [6]), 6.7 µM; in data set [3] (Leishmania major), 63 µg/mL and 173 µM.
Regarding (+)-thalicberine [(+)-Thalicberine 8], the “Cytotoxicity MCR-5 cells 10 µg/mL” value in data set [1] is given as 29. Further, the “Cytotoxicity KB cells 10 µg/mL” value in data set [4] was determined as 43. Also, in data set [2] (FcB1 Colombia strain), the “Antimalarial IC50 Plasmodium falciparum FcB1 Colombia” value worked out at 2.5 mg/L. The IC50 in data set [2] (FcB1 Colombia strain, read-out: Antimalarial IC50 Plasmodium falciparum FcB1 Colombia) stood at 4.2 µM. Also, in data set [3], the IC50 was found to be 90 µM and the “Leishmanicidal IC50 Leishmania major” value is 55 mg/L.
